The test system of assay [1] is U87. Put plainly: Alamar blue cell viability assay, U87 cells. The format is cell-based. Conditions: Homo sapiens, U-87 MG; 72 hours of treatment; mean±SEM, three independent experiments. As to the method:
(§1) U87 and U251 cell lines were obtained from the European Collection of Cell Cultures (ECACC) through CellBank Australia. U87-EGFRvIII cell line was obtained from their lab of origin (Nishikawa et al., 1994, Proc Natl Acad Sci USA 91: 7727-7731) and tested for EGFR amplification and mutation by immunoblotting and flow cytometry. Cells were cultured in DMEM medium (Invitrogen by Life Technologies, Carlsbad, Calif., USA) supplemented with 10% FBS (Sigma-Aldrich) at 37° C. and 5% CO2. Primary gliomaspheres (RN1, classical; WK1, mesenchymal) were derived from glioblastoma specimens (Day et al., 2013, Cancers 5: 357-371; Day et al., 2013, Cancer Cell 23: 238-248), maintained in StemPro NSC serum-free media supplemented with EGF and FGF (all Life Technologies), and grown on matrigel-coated flasks (Pollard et al., 2009, Cell Stem Cell 4: 568-580).
(§2) Cell viability was determined using Alamar blue assay after 72 hours of treatment (Table 2). EC50 values were calculated using non-linear regression on Graph Pad Prism version 5. c Log P values calculated using ChemBioDraw Software. Results are mean±SEM from three independent experiments performed in triplicates.
Background: Alamar Blue is a resazurin reagent that responds to reducing activity.

Assay [2] deals with U251. Put plainly: Alamar blue cell viability assay, U251 cells. The assay is classed as cell-based. Conditions: Homo sapiens, U-251; 72 hours of treatment; mean±SEM, three independent experiments. The method, then: as §1, §2
The target of assay [3] is CSK (Homo sapiens, UniProt P41240). Put plainly: Kinase profiling (ProQinase 33PanQinase Activity Assay), CSK. Conditions: read-out: residual activity, CSK. The format is biochemical. As to the method:
(§3) The kinase profiling of compound 1-08 at 10 and 50 μM was performed by ProQinase GmbH (Freiburg, Germany). A radiometric protein kinase assay (^33PanQinase® Activity Assay) and the non-radiometric ADP-Glo™ Assay (Promega, Madison, Wis., USA) were used for measuring kinase activity of 387 protein kinases and 13 lipid kinases, respectively. The results are shown in Table 3 (only the top 10 kinases are listed, and the selectivity score describes the portion of kinases inhibited more than 50% in relation to all tested kinases).

For assay [4], the target named is LYN (Homo sapiens, UniProt P07948). Put plainly: Kinase profiling (ProQinase 33PanQinase Activity Assay), LYN. The format is biochemical. The note with it: read-out: residual activity, LYN. The method, then:
as §3

The target of assay [5] is T1, MERTK (Homo sapiens, UniProt Q12866).
T1 sequence (Q12866 21-999): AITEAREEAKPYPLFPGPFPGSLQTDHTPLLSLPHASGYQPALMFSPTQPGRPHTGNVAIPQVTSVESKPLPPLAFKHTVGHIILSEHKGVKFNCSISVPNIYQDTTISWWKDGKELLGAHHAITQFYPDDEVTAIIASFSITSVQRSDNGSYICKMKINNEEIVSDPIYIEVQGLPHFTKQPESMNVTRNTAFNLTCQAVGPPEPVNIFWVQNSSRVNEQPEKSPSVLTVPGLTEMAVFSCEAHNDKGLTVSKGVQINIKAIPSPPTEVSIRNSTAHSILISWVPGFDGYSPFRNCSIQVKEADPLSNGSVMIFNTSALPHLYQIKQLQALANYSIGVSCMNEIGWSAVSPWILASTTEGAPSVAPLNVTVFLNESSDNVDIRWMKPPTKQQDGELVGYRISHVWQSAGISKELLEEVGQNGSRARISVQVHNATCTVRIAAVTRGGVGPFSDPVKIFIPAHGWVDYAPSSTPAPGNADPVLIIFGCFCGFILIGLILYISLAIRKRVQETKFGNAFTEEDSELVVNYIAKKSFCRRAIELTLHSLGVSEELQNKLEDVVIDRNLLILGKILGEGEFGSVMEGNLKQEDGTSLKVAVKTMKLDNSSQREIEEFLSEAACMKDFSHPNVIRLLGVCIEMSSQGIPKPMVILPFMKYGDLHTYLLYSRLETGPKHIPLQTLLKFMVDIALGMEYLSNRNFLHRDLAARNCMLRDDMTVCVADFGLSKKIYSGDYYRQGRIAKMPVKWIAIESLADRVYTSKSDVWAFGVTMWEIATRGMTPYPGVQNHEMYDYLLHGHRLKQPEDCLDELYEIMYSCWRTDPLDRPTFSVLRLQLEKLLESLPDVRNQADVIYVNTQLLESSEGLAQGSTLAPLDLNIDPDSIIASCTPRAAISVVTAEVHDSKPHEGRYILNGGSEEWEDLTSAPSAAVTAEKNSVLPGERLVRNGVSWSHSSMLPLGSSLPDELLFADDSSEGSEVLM
Put plainly: Kinase profiling (ProQinase 33PanQinase Activity Assay), MERTK (table: MERK). The assay is classed as biochemical. The method, then: as §3
At 10 μM, compound 1-08 inhibited MERTK at the 51% level. Several other kinases were inhibited at 50 μM concentration.

Assay [6] has as its system RN1 gliomaspheres (classical). Put plainly: AlamarBlue cell viability assay, RN1 gliomaspheres. The assay is classed as cell-based. The note with it: 72 h of drug treatment, FIG. 11A. As to the method:
(§4) FIGS. 11A-11B. Efficacy of SC-38 (referred to as “CMPD1”), compound 1-08 (referred to as “cmpd 13”), compound 1-18 (referred to as “cmpd 7”), and compound 1-38 (referred to as “cmpd 10”) in primary gliomaspheres representing two glioblastoma subtypes. (11A) RN1, classical, and (11B) WK1, mesenchymal. Cellular efficacy (EC50) of test compounds was determined using AlamarBlue cell viability assay after 72 h of drug treatment. Data are mean±SEM from 3 independent experiments performed in triplicate.
as §1, with “568-580). […]” for “568-580).”

For assay [7], the system named is WK1 gliomaspheres (mesenchymal). Put plainly: AlamarBlue cell viability assay, WK1 gliomaspheres. The format is cell-based. Conditions: 72 h of drug treatment, FIG. 11B. As to the method: as §4, §1
The effect of SC-38, and compounds 1-08, 1-18 and 1-38 in a cell viability assay employing patient-derived gliomaspheres was also investigated. RN1 gliomaspheres representing glioblastoma of the classical subtype were most responsive to the treatment (FIG. 11, where SC-38 is referred to as “CMPD1”, compound 1-08 is referred to as “compound 13”, compound 1-18 is referred to as “compound 7”, and compound 1-38 is referred to as “compound 10”).

The structures appear in SMILES notation.

Sequence of LYN (P07948 whole entry): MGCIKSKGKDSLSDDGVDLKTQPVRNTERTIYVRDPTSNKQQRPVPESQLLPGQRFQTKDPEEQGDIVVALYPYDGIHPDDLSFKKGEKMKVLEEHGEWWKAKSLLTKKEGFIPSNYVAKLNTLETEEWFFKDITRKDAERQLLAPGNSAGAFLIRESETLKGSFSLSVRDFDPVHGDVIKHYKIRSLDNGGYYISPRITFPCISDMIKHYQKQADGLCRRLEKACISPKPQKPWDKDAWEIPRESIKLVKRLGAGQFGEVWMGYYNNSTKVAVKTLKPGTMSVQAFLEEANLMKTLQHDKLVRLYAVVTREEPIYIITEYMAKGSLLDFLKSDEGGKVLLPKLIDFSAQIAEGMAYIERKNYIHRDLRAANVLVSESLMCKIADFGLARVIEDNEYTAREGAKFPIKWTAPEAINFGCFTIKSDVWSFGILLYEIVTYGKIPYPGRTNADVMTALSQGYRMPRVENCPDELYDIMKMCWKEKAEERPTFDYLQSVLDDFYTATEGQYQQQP
Sequence of CSK (P41240 whole entry): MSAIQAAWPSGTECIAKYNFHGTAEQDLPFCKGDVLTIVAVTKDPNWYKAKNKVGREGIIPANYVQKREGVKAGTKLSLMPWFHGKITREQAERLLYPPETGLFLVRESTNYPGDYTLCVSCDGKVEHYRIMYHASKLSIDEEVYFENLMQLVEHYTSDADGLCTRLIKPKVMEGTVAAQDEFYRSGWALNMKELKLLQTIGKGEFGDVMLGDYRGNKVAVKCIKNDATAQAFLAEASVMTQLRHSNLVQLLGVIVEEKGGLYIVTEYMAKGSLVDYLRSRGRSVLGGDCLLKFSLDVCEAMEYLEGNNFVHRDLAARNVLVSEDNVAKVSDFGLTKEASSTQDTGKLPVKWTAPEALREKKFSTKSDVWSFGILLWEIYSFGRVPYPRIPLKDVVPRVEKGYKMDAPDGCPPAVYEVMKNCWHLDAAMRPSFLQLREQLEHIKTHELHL

As to `O=C(CCCc1ccc(-c2cnc3ccccc3c2)cc1)Nc1ccc(O)cc1` [Compound 1-08, N-(4-hydroxyphenyl)-4-(4-(quinolin-3-yl)phenyl)butanamide], the EC50 (usually the concentration that produces a half-maximal response) in assay [1] worked out at 650 ± 300 nM; in assay [2] it was 980 ± 200 nM; in assay [6] it was 540 nM; in assay [7], 3820 nM. The remaining activity at 10 µM in assay [3] (10 μM compound) stood at 89%; in assay [4] (10 μM compound), 87%; in assay [5] (10 μM compound, read-out: residual activity, MERK) it was 49%. For the same compound, the remaining activity at 50 µM in assay [3] (50 μM compound) was determined as 21%; in assay [4] (50 μM compound) it was 21%; in assay [5] (50 μM compound, read-out: residual activity, MERK), 12%. In addition, 10 µM produced 51% inhibition in assay [5] (10 μM compound).
